Test results published in ChEMBL document CHEMBL1130243, “Potent and selective inhibition of neuronal nitric oxide synthase by N omega-propyl-L-arginine” (J Med Chem, 1997).

Experiments:
Nitric oxide synthase 3 = target: T1, Nitric oxide synthase 3 (Bos taurus, UniProt P29473); experiment: Compound was tested for binding affinity against Endothelial nitric oxide synthase
T1 sequence (P29473 whole entry): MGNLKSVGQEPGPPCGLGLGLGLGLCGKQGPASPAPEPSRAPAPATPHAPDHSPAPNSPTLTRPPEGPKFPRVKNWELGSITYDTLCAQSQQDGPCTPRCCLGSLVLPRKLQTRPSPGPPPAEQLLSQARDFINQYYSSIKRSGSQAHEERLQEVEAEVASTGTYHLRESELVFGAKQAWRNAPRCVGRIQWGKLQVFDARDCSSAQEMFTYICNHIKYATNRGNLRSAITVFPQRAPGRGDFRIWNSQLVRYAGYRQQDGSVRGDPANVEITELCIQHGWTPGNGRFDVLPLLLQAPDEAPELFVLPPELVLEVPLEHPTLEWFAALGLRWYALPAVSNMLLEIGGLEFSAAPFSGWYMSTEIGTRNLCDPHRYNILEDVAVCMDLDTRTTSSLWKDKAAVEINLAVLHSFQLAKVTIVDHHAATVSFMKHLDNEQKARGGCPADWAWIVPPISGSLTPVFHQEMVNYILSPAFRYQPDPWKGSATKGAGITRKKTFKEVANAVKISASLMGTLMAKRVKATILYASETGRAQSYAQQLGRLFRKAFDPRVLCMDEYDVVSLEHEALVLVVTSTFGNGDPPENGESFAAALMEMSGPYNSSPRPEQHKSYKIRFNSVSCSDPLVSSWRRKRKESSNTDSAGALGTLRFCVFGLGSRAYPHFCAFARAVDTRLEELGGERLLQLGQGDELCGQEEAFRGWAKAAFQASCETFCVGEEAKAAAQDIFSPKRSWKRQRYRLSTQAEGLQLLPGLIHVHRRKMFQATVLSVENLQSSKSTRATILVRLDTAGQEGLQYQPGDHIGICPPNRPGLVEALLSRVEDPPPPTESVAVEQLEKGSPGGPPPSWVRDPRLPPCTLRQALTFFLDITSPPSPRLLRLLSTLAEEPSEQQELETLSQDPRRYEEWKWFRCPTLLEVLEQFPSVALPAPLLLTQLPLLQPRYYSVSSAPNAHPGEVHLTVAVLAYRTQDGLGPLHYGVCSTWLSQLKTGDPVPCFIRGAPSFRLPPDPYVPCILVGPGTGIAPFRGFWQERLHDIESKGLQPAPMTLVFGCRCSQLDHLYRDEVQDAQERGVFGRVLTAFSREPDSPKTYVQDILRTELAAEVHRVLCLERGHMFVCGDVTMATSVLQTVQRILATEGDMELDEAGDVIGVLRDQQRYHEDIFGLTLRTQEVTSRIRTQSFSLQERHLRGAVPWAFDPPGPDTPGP

[1] = target: T2, Nitric oxide synthase, inducible (Mus musculus, UniProt P29477); experiment: Compound was tested for binding affinity against recombinant inducible nitric oxide synthase (iNOS) from mouse
T2 sequence (P29477 whole entry): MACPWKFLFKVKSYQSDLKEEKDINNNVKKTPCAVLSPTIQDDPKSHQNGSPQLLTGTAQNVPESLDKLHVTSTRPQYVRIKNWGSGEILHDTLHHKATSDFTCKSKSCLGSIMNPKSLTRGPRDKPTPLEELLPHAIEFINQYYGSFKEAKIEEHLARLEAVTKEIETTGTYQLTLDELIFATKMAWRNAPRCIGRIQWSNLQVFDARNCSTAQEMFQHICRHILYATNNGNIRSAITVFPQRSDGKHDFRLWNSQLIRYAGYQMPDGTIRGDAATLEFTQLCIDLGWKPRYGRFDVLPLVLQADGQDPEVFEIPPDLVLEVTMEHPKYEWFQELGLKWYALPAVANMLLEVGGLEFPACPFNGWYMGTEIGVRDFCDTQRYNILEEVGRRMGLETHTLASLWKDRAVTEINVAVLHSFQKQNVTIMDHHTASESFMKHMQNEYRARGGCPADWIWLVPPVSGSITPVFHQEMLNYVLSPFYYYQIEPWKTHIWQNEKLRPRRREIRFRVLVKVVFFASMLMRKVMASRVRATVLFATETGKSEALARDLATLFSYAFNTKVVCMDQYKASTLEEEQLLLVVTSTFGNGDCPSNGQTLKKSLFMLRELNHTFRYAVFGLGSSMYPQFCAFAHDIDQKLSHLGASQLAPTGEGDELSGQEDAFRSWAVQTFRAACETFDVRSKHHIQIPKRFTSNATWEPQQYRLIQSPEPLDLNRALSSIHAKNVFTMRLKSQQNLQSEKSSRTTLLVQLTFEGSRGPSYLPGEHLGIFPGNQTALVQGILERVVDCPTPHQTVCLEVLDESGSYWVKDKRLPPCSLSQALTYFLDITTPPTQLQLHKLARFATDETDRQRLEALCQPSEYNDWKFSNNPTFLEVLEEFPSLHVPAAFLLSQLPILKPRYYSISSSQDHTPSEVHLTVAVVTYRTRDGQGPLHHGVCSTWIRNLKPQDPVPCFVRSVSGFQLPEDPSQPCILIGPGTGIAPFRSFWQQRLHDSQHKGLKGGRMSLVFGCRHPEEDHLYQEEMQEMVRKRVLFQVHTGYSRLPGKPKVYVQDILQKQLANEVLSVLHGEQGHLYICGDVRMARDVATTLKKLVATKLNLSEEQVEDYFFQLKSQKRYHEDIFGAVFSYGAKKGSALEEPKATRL

Ki (Nitric oxide synthase 3)	Ki [1]	SMILES
–	0.62 µM	C#CC/N=C(/N)NCCCC(N)C(=O)O (stereo unspecified)
8.5 µM	–	CCC/N=C(/N)NCCCC(N)C(=O)O (stereo unspecified)
3.1 µM	2.1 µM	C=CCNC(=N)NCCCC(N)C(C)=O (stereo unspecified)

SMILES	Ki (Nitric oxide synthase 3)	Ki [1]
CC/N=C(/N)NCCCC(N)C(=O)O (stereo unspecified)	9.5 µM	6.1 µM
